The results in this text go back to patent US20020090380A1, “Novel formulation comprising thymol useful in the treatment of drug resistant bacterial infections” (priority 2000, published 2002).

Experiment [1] deals with Ethidium bromide resistant strain of Mycobacterium smegmetis. Type of experiment: cell-based.
The next experiment deals with E. coli CA 8000 (WT). Type of experiment: cell-based, Escherichia coli.
For another experiment, the system named is Nal^R mutants of E. coli. The experiment is classed as cell-based, Escherichia coli.
Experiment [2] relates to lomefloxacin resistant cells of E. coli. Type of experiment: cell-based, Escherichia coli.
Experiment [3] concerns Lom^R mutants of Mycobacterium smegmatis. Type of experiment: cell-based.
Another experiment concerns E. coli cells. Put plainly: microbe, parasite or virus in culture. The experiment is classed as cell-based. The settings on record: Escherichia coli.
Experiment [4] has as its system Mycobacterium smegmetis wild type. The experiment is classed as cell-based.

Like-named read-outs stand apart in the source and are kept apart here.

As for `O=C(N[C@H](CO)[C@H](O)c1ccc([N+](=O)[O-])cc1)C(Cl)Cl` [Chloromphenicol], in experiment [1], the “concentration against which the strain is resistant (mdr)” value was 20 µg/mL.
Regarding `O=C(O)c1cn(C2CC2)c2cc(N3CCNCC3)c(F)cc2c1=O` [Ciprofloxacin, ciprofloxacin], the “Growth in poison agar medium” value in the experiment on E. coli CA 8000 (WT) is “−”; with Nal^R mutants of E. coli (CAN 101, 5 μg/ml) it was “−”; with Nal^R mutants of E. coli (CAN 102, 5 μg/ml), “−”; with Nal^R mutants of E. coli (CAN 103, 5 μg/ml) it was “−”; in the experiment on Nal^R mutants of E. coli (CAN 104, 5 μg/ml), “−”; in the experiment on Nal^R mutants of E. coli (CAN 105, 5 μg/ml), “−”. Further, the “Growth in poison agar medium” value in the experiment on Nal^R mutants of E. coli (CAN 106, 5 μg/ml) is reported as “−”; in the experiment on Nal^R mutants of E. coli (CAN 107, 5 μg/ml) it was “−”; with Nal^R mutants of E. coli (CAN 108, 5 μg/ml), “−”; with Nal^R mutants of E. coli (CAN 109, 5 μg/ml), “−”; in the experiment with Nal^R mutants of E. coli (CAN 110, 5 μg/ml) it was “−”; with Nal^R mutants of E. coli (CAN 111, 5 μg/ml), “−”. Besides, the “Growth in poison agar medium” value was “−” with Nal^R mutants of E. coli (CAN 112, 5 μg/ml); “−” with Nal^R mutants of E. coli (CAN 113, 5 μg/ml); “−” with Nal^R mutants of E. coli (CAN 114, 5 μg/ml); “−” with Nal^R mutants of E. coli (CAN 115, 5 μg/ml); “−” with Nal^R mutants of E. coli (CAN 116, 5 μg/ml); “−” with Nal^R mutants of E. coli (CAN 117, 5 μg/ml). The “Growth in poison agar medium” value in the experiment on Nal^R mutants of E. coli (CAN 118, 5 μg/ml) is reported as “−”; with Nal^R mutants of E. coli (CAN 119, 5 μg/ml), “−”; in the experiment on Nal^R mutants of E. coli (CAN 120, 5 μg/ml), “−”; with Nal^R mutants of E. coli (CAN 121, 5 μg/ml) it was “−”; with Nal^R mutants of E. coli (CAN 122, 5 μg/ml), “−”; in the experiment on Nal^R mutants of E. coli (CAN 123, 5 μg/ml), “−”. The “Growth in poison agar medium” value in the experiment on Nal^R mutants of E. coli (CAN 124, 5 μg/ml) is “−”; in the experiment on Nal^R mutants of E. coli (CAN 125, 5 μg/ml), “−”; with Nal^R mutants of E. coli (CAN 126, 5 μg/ml), “−”; in experiment [2] (CAL 101, 2 μg/ml), “+”; in experiment [2] (CAL 102, 2 μg/ml), “+”; in experiment [2] (CAL 103, 2 μg/ml), “+”. In addition, the “Growth in poison agar medium” value in experiment [2] (CAL 104, 2 μg/ml) is recorded as “+”; in experiment [2] (CAL 105, 2 μg/ml), “+”; in experiment [2] (CAL 106, 2 μg/ml), “+”; in experiment [2] (CAL 107, 2 μg/ml), “+”; in experiment [2] (CAL 108, 2 μg/ml), “+”. Moreover, the “resistance of the mutants” value in experiment [3] (Lom^R mutants) was “resistant”.
With `CCn1cc(C(=O)O)c(=O)c2cc(F)c(N3CCNC(C)C3)c(F)c21` (stereo not drawn) [Lomefloxacin, lomefloxacin], the “Growth in poison agar medium” value with E. coli CA 8000 (WT) was “−”; with Nal^R mutants of E. coli (CAN 101, 5 μg/ml), “−”; with Nal^R mutants of E. coli (CAN 102, 5 μg/ml) it was “−”; in the experiment on Nal^R mutants of E. coli (CAN 103, 5 μg/ml), “−”; with Nal^R mutants of E. coli (CAN 104, 5 μg/ml), “−”; in the experiment with Nal^R mutants of E. coli (CAN 105, 5 μg/ml), “−”. For the same molecule, the “Growth in poison agar medium” value in the experiment on Nal^R mutants of E. coli (CAN 106, 5 μg/ml) is given as “−”; with Nal^R mutants of E. coli (CAN 107, 5 μg/ml), “−”; with Nal^R mutants of E. coli (CAN 108, 5 μg/ml), “−”; with Nal^R mutants of E. coli (CAN 109, 5 μg/ml), “−”; in the experiment on Nal^R mutants of E. coli (CAN 110, 5 μg/ml), “−”; in the experiment with Nal^R mutants of E. coli (CAN 111, 5 μg/ml) it was “−”. The “Growth in poison agar medium” value with Nal^R mutants of E. coli (CAN 112, 5 μg/ml) is on record as “−”; in the experiment with Nal^R mutants of E. coli (CAN 113, 5 μg/ml), “−”; in the experiment on Nal^R mutants of E. coli (CAN 114, 5 μg/ml) it was “−”; in the experiment on Nal^R mutants of E. coli (CAN 115, 5 μg/ml), “−”; in the experiment on Nal^R mutants of E. coli (CAN 116, 5 μg/ml) it was “−”; with Nal^R mutants of E. coli (CAN 117, 5 μg/ml), “−”. Besides, the “Growth in poison agar medium” value in the experiment with Nal^R mutants of E. coli (CAN 118, 5 μg/ml) is “−”; in the experiment on Nal^R mutants of E. coli (CAN 119, 5 μg/ml) it was “−”; with Nal^R mutants of E. coli (CAN 120, 5 μg/ml) it was “−”; in the experiment on Nal^R mutants of E. coli (CAN 121, 5 μg/ml), “−”; with Nal^R mutants of E. coli (CAN 122, 5 μg/ml), “−”; with Nal^R mutants of E. coli (CAN 123, 5 μg/ml), “−”. For the same molecule, the “Growth in poison agar medium” value with Nal^R mutants of E. coli (CAN 124, 5 μg/ml) was “−”; in the experiment on Nal^R mutants of E. coli (CAN 125, 5 μg/ml), “−”; with Nal^R mutants of E. coli (CAN 126, 5 μg/ml), “−”; in experiment [2] (CAL 101, 1.5 μg/ml), “+”; in experiment [2] (CAL 102, 1.5 μg/ml) it was “+”; in experiment [2] (CAL 103, 1.5 μg/ml), “+”. Besides, the “Growth in poison agar medium” value was “+” in experiment [2] (CAL 104, 1.5 μg/ml); “+” in experiment [2] (CAL 105, 1.5 μg/ml); “+” in experiment [2] (CAL 106, 1.5 μg/ml); “+” in experiment [2] (CAL 107, 1.5 μg/ml); “+” in experiment [2] (CAL 108, 1.5 μg/ml). The “concentration upto which the mutants were resistant” value in experiment [3] (Lom^R mutants isolated in medium with 20 μg/ml lomefloxacin) was not above 60 µg/mL.
As for `CCn1cc(C(=O)O)c(=O)c2ccc(C)nc21` [Nalidixic Acid, nalidixic acid], the “Growth in poison agar medium” value with E. coli CA 8000 (WT) (CA 8000 (WT), 50 μg/ml, Table 2) was “−”; in the experiment on E. coli CA 8000 (WT) (CA 8000 (WT), 50 μg/ml, Table 4) it was “−”; with Nal^R mutants of E. coli (CAN 101, 50 μg/ml), “+”; in the experiment with Nal^R mutants of E. coli (CAN 102, 50 μg/ml), “+”; in the experiment on Nal^R mutants of E. coli (CAN 103, 50 μg/ml), “+”; with Nal^R mutants of E. coli (CAN 104, 50 μg/ml) it was “+”. Besides, the “Growth in poison agar medium” value in the experiment on Nal^R mutants of E. coli (CAN 105, 50 μg/ml) was “+”; in the experiment with Nal^R mutants of E. coli (CAN 106, 50 μg/ml) it was “+”; with Nal^R mutants of E. coli (CAN 107, 50 μg/ml) it was “+”; in the experiment on Nal^R mutants of E. coli (CAN 108, 50 μg/ml), “+”; in the experiment with Nal^R mutants of E. coli (CAN 109, 50 μg/ml) it was “+”; with Nal^R mutants of E. coli (CAN 110, 50 μg/ml), “+”. Moreover, the “Growth in poison agar medium” value in the experiment on Nal^R mutants of E. coli (CAN 111, 50 μg/ml) is recorded as “+”; in the experiment with Nal^R mutants of E. coli (CAN 112, 50 μg/ml) it was “+”; in the experiment with Nal^R mutants of E. coli (CAN 113, 50 μg/ml), “+”; in the experiment with Nal^R mutants of E. coli (CAN 114, 50 μg/ml), “+”; in the experiment with Nal^R mutants of E. coli (CAN 115, 50 μg/ml), “+”; in the experiment with Nal^R mutants of E. coli (CAN 116, 50 μg/ml) it was “+”. The “Growth in poison agar medium” value is “+” with Nal^R mutants of E. coli (CAN 117, 50 μg/ml); “+” in the experiment on Nal^R mutants of E. coli (CAN 118, 50 μg/ml); “+” with Nal^R mutants of E. coli (CAN 119, 50 μg/ml); “+” with Nal^R mutants of E. coli (CAN 120, 50 μg/ml); “+” in the experiment with Nal^R mutants of E. coli (CAN 121, 50 μg/ml); “+” with Nal^R mutants of E. coli (CAN 122, 50 μg/ml). Besides, the “Growth in poison agar medium” value was “+” with Nal^R mutants of E. coli (CAN 123, 50 μg/ml); “+” in the experiment on Nal^R mutants of E. coli (CAN 124, 50 μg/ml); “+” in the experiment on Nal^R mutants of E. coli (CAN 125, 50 μg/ml); “+” with Nal^R mutants of E. coli (CAN 126, 50 μg/ml); “+” in experiment [2] (CAL 101, 50 μg/ml); “+” in experiment [2] (CAL 102, 50 μg/ml). The “Growth in poison agar medium” value was “+” in experiment [2] (CAL 103, 50 μg/ml); “+” in experiment [2] (CAL 104, 50 μg/ml); “+” in experiment [2] (CAL 105, 50 μg/ml); “+” in experiment [2] (CAL 106, 50 μg/ml); “+” in experiment [2] (CAL 107, 50 μg/ml); “+” in experiment [2] (CAL 108, 50 μg/ml). In the experiment on E. coli cells (nalidixic acid 0.25 μg/disc), this molecule displayed a zone of inhibition at 0.25 µg/disc of 3 mm. Also, the zone of inhibition at 0.5 µg/disc in the experiment on E. coli cells (nalidixic acid 0.50 μg/disc) turned out to be 6 mm. The same molecule had a zone of inhibition at 1 µg/disc in the experiment with E. coli cells (nalidixic acid 1.00 μg/disc) of 9 mm. This molecule displayed a zone of inhibition at 1.5 µg/disc in the experiment on E. coli cells (nalidixic acid 1.50 μg/disc) of 11 mm. Besides, the zone of inhibition at 2 µg/disc in the experiment on E. coli cells (nalidixic acid 2.00 μg/disc) came to 12 mm.
Consider `CO[C@H]1/C=C/O[C@@]2(C)Oc3c(C)c(O)c4c(O)c(c(/C=N/N5CCN(C)CC5)c(O)c4c3C2=O)NC(=O)/C(C)=C\C=C\[C@H](C)[C@H](O)[C@@H](C)[C@@H](O)[C@@H](C)[C@H](OC(C)=O)[C@@H]1C` [Rifampicin], for which, in experiment [1], the “concentration against which the strain is resistant (mdr)” value is 40 µg/mL.
The same measure, in the same setting: then `CN(C)[C@@H]1C(O)=C(C(N)=O)C(=O)[C@@]2(O)C(O)=C3C(=O)c4c(O)cccc4[C@@](C)(O)[C@H]3C[C@@H]12` [Tetracycline], with 10 µg/mL.
Take `CC[n+]1c(-c2ccccc2)c2cc(N)ccc2c2ccc(N)cc21` [ethidium bromide]: the “concentration at which the strain is killed” value in experiment [4] came to 3 µg/mL.
